Test results: US20250302775A1, “METHODS FOR THE TREATMENT OF DEPRESSION” (Autobahn Therapeutics, Inc., priority 2022, published 2025)

The compounds below were run against T1, recombinant human FAAH (rhFAAH) (Homo sapiens, UniProt O00519) (assay: FAAH substrate evaluation: formation of acid metabolite). Settings: 0.5 ng/μL rhFAAH, 1 μM test compound, room temperature, pH 8.0, 0-60 minutes.
T1 construct: purchased Cayman Chemical (Ann Arbor, MI, USA)
T1 sequence (O00519 1-579): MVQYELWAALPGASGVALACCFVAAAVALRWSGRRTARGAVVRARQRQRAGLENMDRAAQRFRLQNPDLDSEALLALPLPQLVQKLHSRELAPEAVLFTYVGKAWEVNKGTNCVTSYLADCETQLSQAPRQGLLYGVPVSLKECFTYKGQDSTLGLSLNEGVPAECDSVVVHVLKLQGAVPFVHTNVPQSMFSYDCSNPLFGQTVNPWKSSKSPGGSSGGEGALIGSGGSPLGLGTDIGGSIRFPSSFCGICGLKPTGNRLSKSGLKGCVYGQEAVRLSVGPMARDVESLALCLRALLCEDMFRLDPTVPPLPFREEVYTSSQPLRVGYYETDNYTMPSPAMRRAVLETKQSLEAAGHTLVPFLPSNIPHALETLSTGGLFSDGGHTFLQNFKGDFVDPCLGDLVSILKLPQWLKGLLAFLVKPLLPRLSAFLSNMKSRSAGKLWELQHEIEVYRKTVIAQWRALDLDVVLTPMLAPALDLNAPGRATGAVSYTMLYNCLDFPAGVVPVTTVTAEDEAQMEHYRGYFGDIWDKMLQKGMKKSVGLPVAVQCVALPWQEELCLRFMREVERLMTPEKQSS
Type: biochemical
Description: Purified recombinant human FAAH (rhFAAH) was purchased from Cayman Chemical (Ann Arbor, MI, USA). The total volume for each incubation was 400 μL containing a final 0.5 ng/μL rhFAAH, 1 μM test compound, 1.25% ethanol or 1 μM PF-3845 (FAAH inhibitor), and 0.1% bovine serum albumin in Tris-EDTA buffer at pH 8.0). The positive control was LL-341001. The incubation was conducted at the room temperature. At 0, 5, 15, 30 and 60 minutes, an aliquot of 30 μL reaction mixtures was removed and mixed with 300 μL acetonitrile containing 5 ng/mL terfenadine and 10 ng/mL tolbutamide as internal standards to quench the reaction. The resulting mixture was centrifuged at 4000 rpm, 4° C. for 15 minutes, and 100 μL supernatant was ready for LC-MS/MS analysis to measure the formation of acid metabolite.
Acquity Ultra Performance LC system from Waters was used for sample analysis. The chromatography was performed on a reverse phase Kinetex 2.6 μm C18 column, 2.1×30 mm, 100 Å. The mobile phase A comprised of 0.1% formic acid in water and mobile phase B comprised of 0.1% formic acid in acetonitrile with a 2-min run time at the flow rate of 0.8 mL/min for the acid metabolite from positive control or a 1.5 min run time at the flow rate of 0.9 mL/min for the acid metabolite of test compounds. The mass spectrometer (API-5500 and API Q Trap 4000 Applied Biosystems/MDS SCIEX Instruments, Framingham, MA, USA) was operated under ESI positive or negative ion MRM mode.
The formation of acid metabolite was monitored and quantified using one calibration point of 1 μM. The observed rate constant (ke) for the acid metabolite formation was calculated by plotting the metabolite concentration versus time of incubation with the slope being ke and is shown in Table 1.

Structure (SMILES) | ke (observed rate constant for the acid metabolite formation)
CNC(=O)COc1cc(Cl)c(Cc2ccc(O)c(C(C)C)c2F)c(Cl)c1F [Compound 39] | B (B = ke is less than 0.1 and more than 0)
CNC(=O)COc1cc(Cl)c(Cc2ccc(O)c(C(C)C)c2)c(Cl)c1F [Compound 37] | B (B = ke is less than 0.1 and more than 0)
CC(C)c1cc(Cc2c(Cl)cc(OCC(=O)NC(C)(C)C)cc2Cl)ccc1O [Compound 119] | C (C = ke is 0)
CC(C)c1cc(Cc2c(Cl)cc(OCC(=O)NCCO)cc2Cl)ccc1O [Compound 6] | A (A = ke is more than or equal to 0.1)
CC(C)c1cc(Cc2c(Cl)cc(OCC(=O)N(C)CCO)cc2Cl)ccc1O [Compound 123] | B (B = ke is less than 0.1 and more than 0)
COc1ccc(NC(=O)COc2cc(Cl)c(Cc3ccc(O)c(C(C)C)c3)c(Cl)c2)nn1 [Compound 113] | A (A = ke is more than or equal to 0.1)
CC(C)c1cc(Cc2c(Cl)cc(OCC(=O)N3CCC3)cc2Cl)ccc1O [Compound 118] | B (B = ke is less than 0.1 and more than 0)
CC(C)c1cc(Cc2c(Cl)cc(OCC(=O)NC3CCC3)cc2Cl)ccc1O [Compound 127] | B (B = ke is less than 0.1 and more than 0)
CC(C)c1c(O)ccc(Cc2c(Cl)cc(OCC(N)=O)cc2Cl)c1F [Compound 35] | A (A = ke is more than or equal to 0.1)
CC(C)c1cc(Cc2c(Cl)cc(OCC(=O)NCC(F)F)cc2Cl)ccc1O [Compound 15] | A (A = ke is more than or equal to 0.1)
CC(C)c1cc(Cc2c(Cl)cc(OCC(=O)Nc3cccnn3)cc2Cl)ccc1O [Compound 104] | A (A = ke is more than or equal to 0.1)
CC(C)c1cc(Cc2c(Cl)cc(OCC(=O)NCCS(C)(=O)=O)cc2Cl)ccc1O [Compound 30] | A (A = ke is more than or equal to 0.1)
CC#CCNC(=O)COc1cc(Cl)c(Cc2ccc(O)c(C(C)C)c2)c(Cl)c1 [Compound 106] | B (B = ke is less than 0.1 and more than 0)
CNN(C)C(=O)COc1cc(Cl)c(Cc2ccc(O)c(C(C)C)c2)c(Cl)c1 [Compound 124] | B (B = ke is less than 0.1 and more than 0)
CC(C)c1cc(Cc2c(Cl)cc(OCC(=O)N(C)C)cc2Cl)ccc1O [Compound 19] | B (B = ke is less than 0.1 and more than 0)
CC(C)c1c(O)ccc(Cc2c(Cl)cc(OCC(=O)Nc3cncnc3)cc2Cl)c1F [Compound 109] | A (A = ke is more than or equal to 0.1)
CC(C)c1cc(Cc2c(Cl)cc(OCC(=O)Nc3cccc(F)c3)cc2Cl)ccc1O [Compound 25] | A (A = ke is more than or equal to 0.1)
CC(C)c1c(O)ccc(Cc2c(Cl)cc(OCC(=O)Nc3ccncn3)cc2Cl)c1F [Compound 110] | A (A = ke is more than or equal to 0.1)
CC(C)c1cc(Cc2c(Cl)cc(OCC(=O)NCC(F)(F)F)cc2Cl)ccc1O [Compound 16] | A (A = ke is more than or equal to 0.1)
CC(C)c1cc(Cc2c(Cl)cc(OCC(=O)Nc3cccnc3)cc2Cl)ccc1O [Compound 114] | A (A = ke is more than or equal to 0.1)
CC(C)c1cc(Cc2c(Cl)cc(OCC(=O)N[C@H](C)CO)cc2Cl)ccc1O [Compound 9] | A (A = ke is more than or equal to 0.1)

Structure (SMILES) | ke (observed rate constant for the acid metabolite formation)
CC(C)c1cc(Cc2c(Cl)cc(OCC(=O)N[C@@H]3C[C@@H]3F)cc2Cl)ccc1O [Compound 111] | A (A = ke is more than or equal to 0.1)
CC#CCN(C)C(=O)COc1cc(Cl)c(Cc2ccc(O)c(C(C)C)c2)c(Cl)c1 [Compound 107] | B (B = ke is less than 0.1 and more than 0)
CC(C)c1cc(Cc2c(Cl)cc(OCC(=O)N(C)CC(F)F)cc2Cl)ccc1O [Compound 132] | B (B = ke is less than 0.1 and more than 0)
CC(C)c1cc(Cc2c(Cl)cc(OCC(=O)NCCF)cc2Cl)ccc1O [Compound 14] | A (A = ke is more than or equal to 0.1)
CC(C)c1cc(Cc2c(Cl)cc(OCC(=O)N(C)CC(F)(F)F)cc2Cl)ccc1O [Compound 131] | B (B = ke is less than 0.1 and more than 0)
CC(C)c1cc(Cc2c(Cl)cc(OCC(=O)N(C)C)c(F)c2Cl)ccc1O [Compound 38] | B (B = ke is less than 0.1 and more than 0)
CC(C)c1cc(Cc2c(Cl)cc(OCC(=O)NC3CCCCC3)cc2Cl)ccc1O [Compound 105] | C (C = ke is 0)
CC(C)c1cc(Cc2c(Cl)cc(OCC(=O)NCCCF)cc2Cl)ccc1O [Compound 112] | A (A = ke is more than or equal to 0.1)
CC(C)CNC(=O)COc1cc(Cl)c(Cc2ccc(O)c(C(C)C)c2)c(Cl)c1 [Compound 121] | C (C = ke is 0)
CC(C)c1cc(Cc2c(Cl)cc(OCC(=O)NCc3ccccc3)cc2Cl)ccc1O [Compound 22] | A (A = ke is more than or equal to 0.1)
CC(C)c1c(O)ccc(Cc2c(Cl)cc(OCC(=O)NN(C)C)cc2Cl)c1F [Compound 45] | A (A = ke is more than or equal to 0.1)
CC(C)c1cc(Cc2c(Cl)cc(OCC(=O)NCCc3ccccc3)cc2Cl)ccc1O [Compound 23] | B (B = ke is less than 0.1 and more than 0)
CC(C)c1cc(Cc2c(Cl)cc(OCC(=O)NCCS(=O)O)cc2Cl)ccc1O [Compound 13] | B (B = ke is less than 0.1 and more than 0)
CCNC(=O)COc1cc(Cl)c(Cc2ccc(O)c(C(C)C)c2F)c(Cl)c1 [Compound 33] | A (A = ke is more than or equal to 0.1)
CCCNC(=O)COc1cc(Cl)c(Cc2ccc(O)c(C(C)C)c2)c(Cl)c1 [Compound 3] | A (A = ke is more than or equal to 0.1)
CC(C)c1cc(Cc2c(Cl)cc(OCC(=O)N3CCCC3)cc2Cl)ccc1O [Compound 117] | B (B = ke is less than 0.1 and more than 0)
COc1ccc(NC(=O)COc2cc(Cl)c(Cc3ccc(O)c(C(C)C)c3)c(Cl)c2)cn1 [Compound 101] | A (A = ke is more than or equal to 0.1)
CCN(C)C(=O)COc1cc(Cl)c(Cc2ccc(O)c(C(C)C)c2)c(Cl)c1 [Compound 130] | B (B = ke is less than 0.1 and more than 0)
CC(C)c1c(O)ccc(Cc2c(Cl)cc(OCC(=O)N(C)C)c(F)c2Cl)c1F [Compound 40] | B (B = ke is less than 0.1 and more than 0)
CC(C)c1cc(Cc2c(Cl)cc(OCC(=O)N[C@@H](C)CO)cc2Cl)ccc1O [Compound 10] | A (A = ke is more than or equal to 0.1)
CC(C)c1cc(Cc2c(Cl)cc(OCC(=O)NO)cc2Cl)ccc1O [Compound 26] | A (A = ke is more than or equal to 0.1)
